ChEMBL document CHEMBL5038644 (J Med Chem, 2022)
Active and inactive are the calls of the source. The calls are words filed in the database; no cut-off is given here. Bridge positions count the residues as written; N and C are the ends. Square brackets hold non-standard residues; d marks the D form. Peptide text beside a SMILES is read from it. AllylGly = C=CC[C@H](N)C(=O)O; Nle = CCCC[C@H](N)C(=O)O; Ava = NCCCCC(=O)O

Columns and labels:
Rattus norvegicus [1] = assay: Cardioprotective activity in Sprague-Dawley rat assessed as effect on left ventricular fractional shortening at 2 micromol/kg, sc after 3 hrs by echocardiography relative to control; type: functional; conditions: dose 2 µmol/kg
Rattus norvegicus [2] = assay: Cardioprotective activity in Sprague-Dawley rat assessed as effect on left ventricular fractional shortening at 0.2 micromol/kg, sc after 3 hrs by echocardiography; type: functional, organism-based; conditions: dose 0.2 µmol/kg
Rattus norvegicus [3] = assay: Cardioprotective activity in Sprague-Dawley rat assessed as effect on cardiac output in sprague-dawley rat at 2 micromol/kg, sc after 3 hrs by echocardiography relative to control; type: functional; conditions: dose 2 µmol/kg
Rattus norvegicus [4] = assay: Hypotensive effect in Sprague-Dawley rat assessed as decrease in blood pressure at 19.6 to 65 nmol/kg, iv relative to control; type: functional; conditions: dose 19.6-65 nmol/kg
[5] = biological target: T1, Apelin receptor (Homo sapiens) (UniProt P35414); assay: Agonist activity at human APJ expressed in HEK293 cells assessed as maximal efficacy for dissociation of G alphai1 from the G beta gamma subunit by BRET-based G protein dissociation assay relative to control; type: functional, cell-based; conditions: filed as agonist
T1 sequence (whole entry): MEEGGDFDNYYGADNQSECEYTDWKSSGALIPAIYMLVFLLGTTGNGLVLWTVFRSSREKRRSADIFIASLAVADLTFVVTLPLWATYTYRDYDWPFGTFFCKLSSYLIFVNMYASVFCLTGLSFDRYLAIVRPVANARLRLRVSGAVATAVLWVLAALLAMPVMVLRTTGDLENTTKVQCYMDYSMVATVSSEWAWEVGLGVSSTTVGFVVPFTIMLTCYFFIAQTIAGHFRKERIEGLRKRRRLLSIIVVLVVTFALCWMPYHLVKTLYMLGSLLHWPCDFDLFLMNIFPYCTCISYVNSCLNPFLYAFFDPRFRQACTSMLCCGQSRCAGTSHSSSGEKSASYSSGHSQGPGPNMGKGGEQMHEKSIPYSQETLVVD

[6] = biological target: T1, Apelin receptor (Homo sapiens); assay: Agonist activity at human APJ expressed in HEK293 cell membrane assessed as maximal efficacy for recruitment of PDZ-RhoGEF Galphai1 to cell membrane by BRET-based G protein dissociation assay relative to control; type: functional
[7] = biological target: T1, Apelin receptor (Homo sapiens); assay: Agonist activity at human APJ expressed in HEK293 cell membrane assessed as maximal efficacy for recruitment of beta-arrestin2 to receptor by BRET-based beta-arrestin2 assay relative to control; type: functional; conditions: filed as agonist
[8] = Stability in Sprague-Dawley rat plasma at 3 mg/kg, iv upto 2 hrs by LC/MS-MS analysis; type: ADME, organism-based; conditions: in vivo
[9] = AUC in Sprague-Dawley rat plasma at 3 mg/kg, iv by LC/MS-MS analysis; type: ADME, organism-based; design: dose 3 mg/kg; conditions: in vivo
Apelin receptor = biological target: T2, Apelin receptor (Homo sapiens, UniProt P35414); assay: Displacement of [125I]-[Nle75,Tyr77][Pyr1]-Ape13 from YFP-tagged human APJ expressed in HEK293 cell membranes assessed as inhibition constant incubated for 1 hr by scintillation counting method
T2 sequence (P35414 whole entry): T1 sequence (whole entry)

Rattus norvegicus [10] = assay: Cardioprotective activity in Sprague-Dawley rat assessed as effect on left ventricular fractional shortening at 2 micromol/kg, sc after 6 hrs by echocardiography relative to control; type: functional; conditions: dose 2 µmol/kg
Rattus norvegicus [11] = assay: Cardioprotective activity in Sprague-Dawley rat assessed as effect on cardiac output in sprague-dawley rat at 0.2 micromol/kg, sc after 3 hrs by echocardiography; type: functional, organism-based; conditions: dose 0.2 µmol/kg
Rattus norvegicus [12] = assay: Cardioprotective activity in Sprague-Dawley rat assessed as effect on cardiac output in sprague-dawley rat at 2 micromol/kg, sc after 6 hrs by echocardiography relative to control; type: functional; conditions: dose 2 µmol/kg
[13] = Stability in Sprague-Dawley rat plasma assessed as half life measured upto 24 hrs by UPLC-MS analysis; type: ADME, cell-free

| Compound | Emax [5] | Emax [7] | Ki (Apelin receptor) | Emax ([6]; filed as agonist) | Activity (Rattus norvegicus [4]) | also measured |
| --- | --- | --- | --- | --- | --- | --- |
| CCCC[C@H](NC(=O)[C@@H]1CCCN1C(=O)CNC(=O)[C@H](CCCCN)NC(=O)[C@@H]1CC(=O)NCCCC[C@H](NC(=O)[C@H](CCCNC(=N)N)NC(=O)[C@@H]2CCC(=O)N2)C(=O)N[C@@H](CCCNC(=N)N)C(=O)N[C@@H](CC(C)C)C(=O)N[C@@H](CO)C(=O)N1)C(=O)N1CCC[C@H]1C(=O)N[C@@H](Cc1ccccc1)C(=O)O (HELM PEPTIDE1{[Glp].R.K.R.L.S.D.K.G.P.[Nle].P.F}$PEPTIDE1,PEPTIDE1,3:R3-7:R3$$$V2.0) | – | – | 0.039 µM | – | – | – |
| CCCC[C@H](NC(=O)[C@@H]1CCCN1C(=O)CNC(=O)[C@H](CCCCN)NC(=O)[C@@H]1C/C=C\C[C@H](N)C(=O)N[C@@H](CCCNC(=N)N)C(=O)N[C@@H](CC(C)C)C(=O)N[C@@H](CO)C(=O)N1)C(=O)O | 99% | 69% | – | 59% | -13 mmHg | – |
| CCCC[C@H](NC(=O)[C@@H]1CCCN1C(=O)CNC(=O)[C@H](CCCCN)NC(=O)[C@@H]1C/C=C\C[C@H](NC(=O)[C@H](CCCNC(=N)N)NC(=O)[C@@H]2CCC(=O)N2)C(=O)N[C@@H](CCCNC(=N)N)C(=O)N[C@@H](CC(C)C)C(=O)N[C@@H](CO)C(=O)N1)C(=O)N1CCC[C@H]1C(=O)N[C@@H](Cc1ccccc1)C(=O)O | 101% | 98% | – | 98% | – | – |
| CC(C)C[C@@H]1NC(=O)[C@H](CCCNC(=N)N)NC(=O)[C@@H](N)C/C=C\C[C@@H](C(=O)N[C@@H](CCCCN)C(=O)NCC(=O)N2CCC[C@H]2C(=O)N[C@H](Cc2ccc3ccccc3c2)C(=O)O)NC(=O)[C@H](CO)NC1=O | 105% | 55% | – | 40% | inactive | Activity (Rattus norvegicus [10]): 17%; Activity (Rattus norvegicus [1]): 22%; Activity (Rattus norvegicus [11]): Active; Activity (Rattus norvegicus [2]): Active; Activity (Rattus norvegicus [12]): 16%; Activity (Rattus norvegicus [3]): 22%; half-life [13]: > 24 h; Stability [8]: Stable; AUC [9]: 8.8 mg·min/mL |
| CCCC[C@H](NC(=O)[C@@H]1CCCN1C(=O)CNC(=O)[C@H](CCCCN)NC(=O)[C@@H]1CCN(S(=O)(=O)c2ccccc2[N+](=O)[O-])C/C=C/C[C@H](NC(=O)[C@H](CCCNC(=N)N)NC(=O)[C@@H]2CCC(=O)N2)C(=O)N[C@@H](CCCNC(=N)N)C(=O)N[C@@H](CC(C)C)C(=O)N[C@@H](CO)C(=O)N1)C(=O)N1CCC[C@H]1C(=O)N[C@@H](Cc1ccccc1)C(=O)O | 102% | 98% | – | 92% | – | – |

Continued, in another order:

| Emax [5] | Emax [7] | Ki (Apelin receptor) | Emax ([6]; filed as agonist) | Compound | Activity (Rattus norvegicus [4]) | also measured |
| --- | --- | --- | --- | --- | --- | --- |
| 103% | 70% | – | – | CC(C)C[C@@H]1NC(=O)[C@H](CCCNC(=N)N)NC(=O)[C@@H](N)C/C=C\C[C@@H](C(=O)N[C@@H](CCCCN)C(=O)NCC(=O)N2CCC[C@H]2C(=O)N[C@H](Cc2cccc3ccccc23)C(=O)O)NC(=O)[C@H](CO)NC1=O | -24 mmHg | Activity (Rattus norvegicus [1]): 22%; Activity (Rattus norvegicus [2]): Active; Activity (Rattus norvegicus [3]): 22%; Emax [6]: 3%; Stability [8]: Stable; AUC [9]: 1.33 mg·min/mL |
| – | – | > 10 µM | – | CCCC[C@H](NC(=O)[C@@H]1CCCN1C(=O)CNC(=O)[C@@H]1C/C=C\C[C@H](N)C(=O)N[C@@H](CCCNC(=N)N)C(=O)N[C@@H](CC(C)C)C(=O)N[C@@H](CO)C(=O)N1)C(=O)O (H-[AllylGly]RLS[AllylGly]GP[Nle]-OH; staple (Z) 1-5) | – | – |
| – | – | > 10 µM | – | CCCC[C@H](NC(=O)[C@@H]1CCCN1C(=O)CCCCNC(=O)[C@@H]1C/C=C\C[C@H](N)C(=O)N[C@@H](CCCNC(=N)N)C(=O)N[C@@H](CC(C)C)C(=O)N[C@@H](CO)C(=O)N1)C(=O)O (H-[AllylGly]RLS[AllylGly][Ava]P[Nle]-OH; staple (Z) 1-5) | – | – |
| 100% | 86% | – | 95% | CCCC[C@H](NC(=O)[C@@H]1CCCN1C(=O)CNC(=O)[C@H](CCCCN)NC(=O)[C@@H]1CCNC/C=C/C[C@H](NC(=O)[C@H](CCCNC(=N)N)NC(=O)[C@@H]2CCC(=O)N2)C(=O)N[C@@H](CCCNC(=N)N)C(=O)N[C@@H](CC(C)C)C(=O)N[C@@H](CO)C(=O)N1)C(=O)N1CCC[C@H]1C(=O)N[C@@H](Cc1ccccc1)C(=O)O | – | – |
| 102% | 90% | – | 97% | CCCC[C@H](NC(=O)[C@@H]1CCCN1C(=O)CNC(=O)[C@H](CCCCN)NC(=O)[C@@H]1CCN(C)C/C=C/C[C@H](NC(=O)[C@H](CCCNC(=N)N)NC(=O)[C@@H]2CCC(=O)N2)C(=O)N[C@@H](CCCNC(=N)N)C(=O)N[C@@H](CC(C)C)C(=O)N[C@@H](CO)C(=O)N1)C(=O)N1CCC[C@H]1C(=O)N[C@@H](Cc1ccccc1)C(=O)O | – | – |
